From US4666897A, “Inhibition of mammalian collagenolytic enzymes by tetracyclines” (Research Foundation of State University, priority 1983, dated 1987)

Assays:
[1] = target: T1, rat PMNL collagenolytic activity (PMNL collagenase) (Rattus norvegicus, UniProt O88766); experiment: Rat PMNL collagenolytic activity in vitro (14C-collagen gel lysis); assay type: biochemical; settings: Table 2; PMNL extract (30 × 10^6 PMNLs per ml) + 20 ug/ml; control extract 39.0
T1 construct: An extract of PMNLs was prepared; from tissue; host or cells: extract of peritoneal exudate polymorphonuclear leucocytes of non-diabetic rats, elicited with glycogen
T1 sequence (O88766 102-466): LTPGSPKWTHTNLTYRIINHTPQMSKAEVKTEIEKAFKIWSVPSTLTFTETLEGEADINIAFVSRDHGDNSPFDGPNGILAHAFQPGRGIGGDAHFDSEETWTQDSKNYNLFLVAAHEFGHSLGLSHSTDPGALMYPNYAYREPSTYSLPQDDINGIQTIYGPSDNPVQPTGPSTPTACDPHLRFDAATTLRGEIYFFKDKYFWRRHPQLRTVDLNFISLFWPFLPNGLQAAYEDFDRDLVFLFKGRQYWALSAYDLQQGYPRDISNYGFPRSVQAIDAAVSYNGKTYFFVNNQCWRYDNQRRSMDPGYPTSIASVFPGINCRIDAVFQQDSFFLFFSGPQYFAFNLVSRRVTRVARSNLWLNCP
Method: To test the effect of physiologic levels of minocycline (the concentration in human serum, during a therapeutic regimen, is approximately 2 ug/ml; that in the gingival crevicular fluid is 4-5 times greater; Ciancio, et. al., 1980, J. Periodontol., 51, 531-534) on mammalian collagenolytic activity in vitro, peritonealexudate polymorphomuclear leucocytes (PMNLs) were collected from 15 mole (non-diabetic) rats 4 hours after I.P. injection of 0.15% glycogen. An extract of PMNLs was prepared, 250 μl aliquots of this extract were incubated with ^14 C-glycine labeled collagen fibrils for 14 hours at 35° C. (in the presence or absence of minocycline, or EDTA, or additional CaCl2), and collagenolytic activity was measured as described by Nicoll, et al., (Experientia., 37, 315-317).
The techniques used to measure the collagenolytic enzyme activity of gingival tissue in culture, and in polymorphonuclear leucocytes (PMNLs), are those described by Golub, et. al., (J. Dent. Res., 57, 520-525 (197)8) and Nicoll, et. al., (Experimentia, 37, 315-317, (1981)) with minor modifications.

[2] = tested on: fetal rat bones (radii and ulnae) in organ culture; experiment: PTH-induced bone resorption in organ culture (45calcium release); assay type: cell-based
Method: The technique used to assess bone resorption is based on monitoring the release of radioactive calcium, previously incorporated by embryonic bones in vivo, during organ culture. Pregnant Sprague-Dawley rats were injected subcutaneously with 200 μCi of ^45 calcium chloride on the 18th day of gestation. The following day, the animals were killed, the fetuses removed, and the radii and ulnae dissected under aseptic conditions. […] The bones were then randomly distributed and each bone, either a radius or ulna, was incubated in 0.5 ml of culture media alone or in a media containing parathyroid hormone (PTH: human synthetic 1-34 peptide, Beckman Instruments, Inc., Palo Alto, California) added in a final concentration of 1.0 μg/ml; the experimental bones were incubated in the PTH containing medium to which was added different concentrations (0.2-300 μg/ml) of the antibiotics to be tested. The bones were cultured for 5 days, with the media being changed after day 2, and the incubation terminated. The bones were decalcified in 0.2 ml of 5% trichloroacetic acid and the ^45 calcium content of the residual bones and of the culture media was measured as described previously. (Werner and Raisz, Endocrinology, 90, 752 (1972 ) and Gomes, et. al., Calc. Tiss. Res., 19, 285 (1976)). The ^45 calcium released into the media was calculated as a percentage of the total radioactive calcium measured in the bones.

[3] = tested on: periodontal disease in dogs; settings: dogs on long-term therapy; cited from earlier work
[4] = tested on: periodontal disease in patients; settings: patients who did not respond to routine periodontal therapy; cited from earlier work
rheumatoid arthritis = settings: in vivo; cited from earlier work

CN(C)[C@@H]1C(=O)C(C(N)=O)=C(O)[C@@]2(O)C(=O)C3=C(O)c4c(O)cccc4[C@@](C)(O)[C@H]3C[C@@H]12 [tetracycline, Tetracycline]
Collagenolytic Activity: % ^14 C-collagen gel lyzed [1]: 2.0% | ^45 Calcium in Fetal Bone Released into Media (%) after 2 days incubation ([2]; Table 4, first column, PTH + 0.2 μg/ml): 58.4 ± 1.3% | ^45 Calcium in Fetal Bone Released into Media (%) after 2 days incubation ([2]; Table 4, first column, PTH + 2.0 μg/ml): 59.9 ± 1.5% | ^45 Calcium in Fetal Bone Released into Media (%) after 2 days incubation ([2]; Table 4, first column, PTH + 20 μg/ml): 45.0 ± 0.7% | ^45 Calcium in Fetal Bone Released into Media (%) after 2 days incubation ([2]; Table 4, first column, PTH + 200 μg/ml): 14.4 ± 0.4% | ^45 Calcium in Fetal Bone Released into Media (%) after 2 days incubation ([2]; Table 4, second column, PTH + 0.2 μg/ml): 93.0 ± 1.7% | ^45 Calcium in Fetal Bone Released into Media (%) after 2 days incubation ([2]; Table 4, second column, PTH + 2.0 μg/ml): 97.2 ± 0.8% | ^45 Calcium in Fetal Bone Released into Media (%) after 2 days incubation ([2]; Table 4, second column, PTH + 20 μg/ml): 69.4 ± 3.5% | ^45 Calcium in Fetal Bone Released into Media (%) after 2 days incubation ([2]; Table 4, second column, PTH + 200 μg/ml): 19.8 ± 0.5% | effect on PTH-enhanced bone resorption, in words ([2]; concentrations 0.2-300 μg/ml): inhibited bone resorption in a dose responsive manner | periodontal disease [3]: significant improvement | clinical benefit of long-term use [4]: clinically beneficial | treatment of rheumatoid arthritis (rheumatoid arthritis): effective
